According to PubChem BioAssay (NCI):
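Five compound concentrations were applied to cells in 96-well plates for 48 hours; endpoints were derived by simple linear interpolation of the resulting dose-response curve. Definition used: TGI = concentration required for complete inhibition of growth.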

Columns and labels:
Assay in all cases: NCI tumour cell line growth inhibition, 48 h
NCI-H460 lung = tested on: NCI-H460 lung
OVCAR-4 ovarian = tested on: OVCAR-4 ovarian
NCI-H23 lung = tested on: NCI-H23 lung
OVCAR-5 ovarian = tested on: OVCAR-5 ovarian
SK-OV-3 ovarian = tested on: SK-OV-3 ovarian
HCC-2998 colon = tested on: HCC-2998 colon
RXF 393 renal = tested on: RXF 393 renal
KM20L2 colon = tested on: KM20L2 colon
OVCAR-8 ovarian = tested on: OVCAR-8 ovarian
CCRF-CEM leukemia = tested on: CCRF-CEM leukemia
HOP-92 NSCLC = tested on: HOP-92 NSCLC
HOP-62 NSCLC = tested on: HOP-62 NSCLC
SF-295 CNS = tested on: SF-295 CNS
XF 498 CNS = tested on: XF 498 CNS
SNB-78 CNS = tested on: SNB-78 CNS

Measured: TGI

C[N+](C)(C)CC(=O)N/N=C/c1oc(-c2cccc([N+](=O)[O-])c2)c(-c2cccc([N+](=O)[O-])c2)c1[N+](=O)[O-]
not listed: SF-295 CNS | XF 498 CNS | SNB-78 CNS
> 100 µM: all other assays above

N=C1/C(=C/c2ccccc2)C(=O)N=C2SC=NN12
not listed: KM20L2 colon | XF 498 CNS | SNB-78 CNS
> 100 µM: all other assays above

C=CCC1(O)C(=O)OC2C(O)COC21O (stereo not drawn)
not listed: KM20L2 colon | XF 498 CNS | SNB-78 CNS
> 100 µM: all other assays above

Cc1no[n+]([O-])c1/C=N/NS(=O)(=O)c1ccccc1
not listed: NCI-H460 lung | CCRF-CEM leukemia | SF-295 CNS | XF 498 CNS | SNB-78 CNS
> 100 µM: all other assays above

Cc1ccc(C)c(NC(=O)/C(=N\N)C(c2cnc3ccc([N+](=O)[O-])cc3n2)[N+](=O)[O-])c1 (stereo not drawn)
62.9 µM: OVCAR-4 ovarian
25.9 µM: CCRF-CEM leukemia
not listed: KM20L2 colon | XF 498 CNS | SNB-78 CNS
> 100 µM: all other assays above

COC(=N)c1ncn(Cc2ccccc2)c1N
not listed: KM20L2 colon | XF 498 CNS | SNB-78 CNS
> 100 µM: all other assays above

CC(C)(C)OC(=O)N(CCCCNC(=O)c1ccccc1)CCCNC(=O)c1ccccc1
not listed: KM20L2 colon | XF 498 CNS | SNB-78 CNS
> 100 µM: all other assays above

NC(CCC(=O)NC(CSC(=O)N(O)c1ccc(Cl)cc1)C(=O)NCC(=O)O)C(=O)O (stereo not drawn)
not listed: KM20L2 colon | XF 498 CNS | SNB-78 CNS
> 0.5 µM: all other assays above

c1csc(-c2cscc2-c2cccs2)c1
82.6 µM: HCC-2998 colon
93.8 µM: HOP-62 NSCLC
77.7 µM: RXF 393 renal
not listed: KM20L2 colon | XF 498 CNS | SNB-78 CNS
> 100 µM: all other assays above

Cc1ccccc1C(=O)NC(O)(C(F)(F)F)C(F)(F)F
not listed: KM20L2 colon | XF 498 CNS | SNB-78 CNS
> 100 µM: all other assays above

COC(=O)NN/C=C(\C=Nc1ccccc1)[N+](=O)[O-]
not listed: OVCAR-5 ovarian | SF-295 CNS | SNB-78 CNS
> 100 µM: all other assays above

CC(=O)N1N=C(c2ccc3ccccc3c2O)CC1c1ccc(Cl)cc1Cl (stereo not drawn)
not listed: KM20L2 colon | XF 498 CNS | SNB-78 CNS
> 100 µM: all other assays above

Cc1cc(CN(Cc2ccccc2)Cc2nc3ccccc3[nH]2)c(O)c(CN(Cc2nc3ccccc3[nH]2)Cc2nc3ccccc3[nH]2)c1
98.7 µM: OVCAR-4 ovarian
> 100 µM: OVCAR-5 ovarian | OVCAR-8 ovarian
> 79.5 µM: NCI-H23 lung
14.7 µM: HOP-92 NSCLC
> 52.3 µM: SK-OV-3 ovarian
35.3 µM: HOP-62 NSCLC
> 21.8 µM: CCRF-CEM leukemia
38 µM: HCC-2998 colon
64.1 µM: RXF 393 renal
28 µM: NCI-H460 lung
> 61.6 µM: SF-295 CNS

COC(=O)c1ccc(-n2c(C)nc(=O)c(-c3ccccc3)c2C)cc1
not listed: KM20L2 colon | XF 498 CNS | SNB-78 CNS
> 100 µM: all other assays above

CC(=O)n1cc(CC(C)O)c(=O)[nH]c1=O (stereo not drawn)
not listed: HCC-2998 colon | RXF 393 renal | CCRF-CEM leukemia | HOP-92 NSCLC
> 100 µM: all other assays above

CCOC(=O)c1ncn2c1[nH]c(=O)c1ccccc12
not listed: SK-OV-3 ovarian | HCC-2998 colon | HOP-92 NSCLC | HOP-62 NSCLC
> 100 µM: all other assays above

COc1ccc(/C=N/NS(=O)(=O)c2ccc(/C=C3\NC(=O)N(C)C3=O)cc2)cc1
not listed: KM20L2 colon | XF 498 CNS | SNB-78 CNS
> 100 µM: all other assays above

Nc1cccc(/C=C/CN2CCN(CCOC(c3ccccc3)c3ccccc3)CC2)c1
30.7 µM: NCI-H23 lung
30.5 µM: OVCAR-5 ovarian
11.9 µM: HCC-2998 colon
30.1 µM: OVCAR-8 ovarian
27 µM: SK-OV-3 ovarian
26.9 µM: HOP-62 NSCLC
31.4 µM: SF-295 CNS
27.7 µM: NCI-H460 lung | OVCAR-4 ovarian
25.5 µM: RXF 393 renal
25.4 µM: HOP-92 NSCLC
25.7 µM: CCRF-CEM leukemia

N#CC12CC=C(c3ccccc3)N=C1NC(c1ccccc1)=CC2 (stereo not drawn)
92.2 µM: HOP-92 NSCLC
77.7 µM: CCRF-CEM leukemia
not listed: KM20L2 colon | XF 498 CNS | SNB-78 CNS
> 100 µM: all other assays above

Nc1ncnc2c1ccn2CC=C(CO)CO
not listed: KM20L2 colon | XF 498 CNS | SNB-78 CNS
> 100 µM: all other assays above

O=S(=O)(c1ccccc1)[C@@H]1[C@H]2C=C[C@](CS)(O2)[C@H]1S(=O)(=O)c1ccccc1
8.33 µM: CCRF-CEM leukemia
not listed: KM20L2 colon | XF 498 CNS | SNB-78 CNS
> 100 µM: all other assays above

CCOC(=O)C(Cc1ccc2c(c1)CCC2)Cc1ccc2c(c1)CCC2
not listed: KM20L2 colon | XF 498 CNS | SNB-78 CNS
> 100 µM: all other assays above

CC(=O)c1c2c(cc3c1CC1(C3)Cc3ccc4c(c3C1=O)CCC4)CCC2 (stereo not drawn)
83.7 µM: HOP-92 NSCLC
not listed: KM20L2 colon | XF 498 CNS | SNB-78 CNS
> 100 µM: all other assays above

COC(=O)C(=O)c1cc2ccccc2n1S(=O)(=O)c1ccccc1
not listed: KM20L2 colon | XF 498 CNS | SNB-78 CNS
> 100 µM: all other assays above

OC1=CN=C(C2CC2)Oc2ccccc21
not listed: OVCAR-5 ovarian | XF 498 CNS
> 100 µM: all other assays above

C=CC(Br)(CBr)CCC(Br)C(C)(C)Br (stereo not drawn)
16 µM: SF-295 CNS
29.9 µM: HOP-92 NSCLC
23.4 µM: NCI-H460 lung
35.7 µM: SK-OV-3 ovarian
32.3 µM: OVCAR-4 ovarian
36.1 µM: HOP-62 NSCLC
30.3 µM: NCI-H23 lung
33.2 µM: OVCAR-5 ovarian
19.6 µM: SNB-78 CNS
28.8 µM: RXF 393 renal
30.1 µM: OVCAR-8 ovarian

S=C1NCCN1C(=S)NC1CCCCC1
42.3 µM: HCC-2998 colon
59.2 µM: NCI-H23 lung
28.6 µM: RXF 393 renal
66.2 µM: HOP-92 NSCLC
48 µM: NCI-H460 lung
45.5 µM: OVCAR-4 ovarian
not listed: KM20L2 colon | XF 498 CNS | SNB-78 CNS
> 100 µM: all other assays above

CSc1ncc2c(C#N)c3ccccn3c(=O)c2n1
not listed: KM20L2 colon | XF 498 CNS | SNB-78 CNS
> 100 µM: all other assays above

Cn1c2c(c3ccccc31)CC(=O)N1CCCC(C1)CC21OCCO1 (stereo not drawn)
not listed: KM20L2 colon | XF 498 CNS | SNB-78 CNS
> 100 µM: all other assays above

CCNC(=S)Nc1c(C#N)c2n(c1C(=O)OCC)CCCCC2
not listed: OVCAR-5 ovarian | KM20L2 colon | XF 498 CNS | SNB-78 CNS
> 100 µM: all other assays above

COc1ccc(N2C(=O)C(C#N)=C(SC)C(C#N)C2=O)cc1 (stereo not drawn)
not listed: NCI-H23 lung | KM20L2 colon | XF 498 CNS | SNB-78 CNS
> 100 µM: all other assays above

O=C(Cc1nc2ccc(C(=O)c3ccccc3)cc2[nH]c1=O)C(=O)Nc1ccc(C(F)(F)F)cc1[N+](=O)[O-]
91.8 µM: CCRF-CEM leukemia
not listed: RXF 393 renal
> 100 µM: all other assays above

C[C@]12CC[C@H]3[C@@H](CC=C4C[C@@H](O)CC[C@@]43C)[C@@H]1C[C@H](N1CCOCC1)[C@@H]2O
not listed: KM20L2 colon | XF 498 CNS | SNB-78 CNS
> 100 µM: all other assays above

Cc1ccc(S(=O)(=O)C(C#N)c2nc3ccccc3nc2N2CCOCC2)cc1 (stereo not drawn)
28.5 µM: HCC-2998 colon
15.9 µM: SNB-78 CNS
81.7 µM: XF 498 CNS
> 100 µM: OVCAR-5 ovarian | SK-OV-3 ovarian | KM20L2 colon
39.7 µM: NCI-H460 lung
44.6 µM: HOP-62 NSCLC
37.4 µM: OVCAR-4 ovarian
62.2 µM: CCRF-CEM leukemia
55.1 µM: NCI-H23 lung

O=CN1CCN(C(=O)c2ccc(Cl)cc2)C1=S
44 µM: HOP-62 NSCLC
31.3 µM: OVCAR-8 ovarian
52 µM: NCI-H460 lung
33.9 µM: HCC-2998 colon
14.9 µM: HOP-92 NSCLC
53.6 µM: NCI-H23 lung
31 µM: RXF 393 renal
76 µM: SF-295 CNS
35.6 µM: OVCAR-5 ovarian
35.5 µM: OVCAR-4 ovarian
37.4 µM: CCRF-CEM leukemia
74.6 µM: SK-OV-3 ovarian

O=C(Nc1ccccc1)c1cc2c(cc1Cl)SC(NNCCO)=NS2(=O)=O
not listed: OVCAR-5 ovarian | KM20L2 colon | XF 498 CNS | SNB-78 CNS
> 100 µM: all other assays above

c1ccc(CNCCCNCCCCNCCCNCc2ccccc2)cc1
19.1 µM: NCI-H460 lung
25.7 µM: RXF 393 renal
3.57 µM: HOP-92 NSCLC
31 µM: SK-OV-3 ovarian
15.2 µM: HCC-2998 colon
33.1 µM: OVCAR-4 ovarian
16.2 µM: OVCAR-5 ovarian
27 µM: OVCAR-8 ovarian
17.1 µM: HOP-62 NSCLC
35.2 µM: SF-295 CNS
12.3 µM: NCI-H23 lung
> 21.5 µM: CCRF-CEM leukemia
